IC50 data for 21 molecules are collected here from patent publication US20260274833A1 (NiKang Therapeutics, Inc., priority 2022, published 2026).

For the test, the target named is T1, CDK2 (Homo sapiens, UniProt P24941).
T1 construct: endogenous in cells; host or cells: OVCAR3 cells
The experiment in a line: Phospho-RB measurement in OVCAR3 cells (HTRF phospho-RB cellular kit). The format is cell-based. The settings on record: inhibition of RB phosphorylation at S807/811 (HTRF, TR-FRET ratio 665/620), 24 h compound treatment, 0.3 to 10,000 nM. An outline of the steps:
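IC50 came from a four-parameter logistic fit of the DMSO-normalized TR-FRET ratio (665/620 nm). That ratio reflects RB phosphorylation at S807/811, read with an HTRF antibody pair 4 h after adding lysate at room temperature.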
With `CC(C)(C)c1nc(-c2cccc(NS(=O)(=O)N3CCNc4ccccc4C3)c2F)c(-c2ccnc(NC3CCN(S(C)(=O)=O)CC3)n2)s1` [Example 102, N-(3-(2-(tert-butyl)-5-(2-((1-(methylsulfonyl)piperidin-4-yl)amino)-pyrimidin-4-yl)thiazol-4-yl)-2-fluorophenyl)-1,2,3,5-tetrahydro-4H-benzo[e] [1,4]diazepine-4-sulfonamide], the IC50 was 281 nM.
As to `COc1ccc2c(c1)CN(S(=O)(=O)Nc1cccc(-c3nc(C(C)(C)C)sc3-c3ccnc(NC4CCN(S(=O)(=O)N5CCNCC5)CC4)n3)c1F)C2` [Example 119, N-(3-(2-(tert-butyl)-5-(2-((1-(piperazin-1-ylsulfonyl)piperidin-4-yl)amino)-pyrimidin-4-yl)thiazol-4-yl)-2-fluoro-phenyl)-5-methoxy-isoindoline-2-sulfonamide], the IC50 is 397 nM.
To `CC(C)(C)c1nc(-c2cccc(NS(=O)(=O)N3CCc4c(C#N)cccc43)c2F)c(-c2ccnc(NC3CCN(S(C)(=O)=O)CC3)n2)s1` [Example 104, N-(3-(2-(tert-butyl)-5-(2-((1-(methylsulfonyl)piperidin-4-yl)amino)-pyrimidin-4-yl)thiazol-4-yl)-2-fluorophenyl)-4-cyanoindoline-1-sulfonamide] belongs 82 nM.
The same measure for `O=S1(=O)CC2(CC(Nc3nccc(-c4sc(C56CC(C(F)(F)F)(C5)C6)nc4-c4cccc(NS(=O)(=O)N5CCc6ccc(Cl)cc65)c4F)n3)C2)C1` [Example 280, 6-chloro-N-(3-(5-(2-((2,2-dioxido-2-thiaspiro[3.3]heptan-6-yl)amino)-pyrimidin-4-yl)-2-(3-(trifluoromethyl)-bicyclo[1.1.1]pentan-1-yl)thiazol-4-yl)-2-fluorophenyl) indoline-1-sulfonamide]: 285 nM; for `O=S1(=O)CC2(CC(Nc3nccc(-c4sc(C56CC(C5)C6)nc4-c4cccc(NS(=O)(=O)N5CCOc6ccccc6C5)c4F)n3)C2)C1` [Example 272, N-(3-(2-(bicyclo [1.1.1]pentan-1-yl)-5-(2-((2,2-dioxido-2-thiaspiro[3.3]heptan-6-yl)amino)-pyrimidin-4-yl)thiazol-4-yl)-2-fluorophenyl)-2,3-dihydrobenzo-[f][1,4]oxazepine-4(5H)-sulfonamide]: 350 nM; for `CC(C)(C)c1nc(-c2cccc(NS(=O)(=O)N3CCC(F)(F)C3)c2F)c(-c2ccnc(NC3CC4(C3)CS(=O)(=O)C4)n2)s1` [Example 186, N-(3-(2-(tert-butyl)-5-(2-((2,2-dioxido-2-thiaspiro[3.3]heptan-6-yl)amino)-pyrimidin-4-yl)thiazol-4-yl)-2-fluoro-phenyl)-3,3-difluoropyrrolidine-1-sulfonamide]: 1180 nM.
To `CN(C)CCN(C)S(=O)(=O)N1CCC(Nc2nccc(-c3sc(C(C)(C)C)nc3-c3cccc(NS(=O)(=O)N4CCc5ccc(C#N)cc54)c3F)n2)CC1` [Example 122, N-(3-(2-(tert-butyl)-5-(2-((1-(N-(2-(dimethylamino)ethyl)-N-methylsulfamoyl)-piperidin-4-yl)amino)-pyrimidin-4-yl)thiazol-4-yl)-2-fluoro-phenyl)-6-cyanoindoline-1-sulfonamide] belongs 54 nM; to `O=S1(=O)CC2(CC(Nc3nccc(-c4sc(C56CC(C(F)(F)F)(C5)C6)nc4-c4cccc(NS(=O)(=O)N5CCc6ccc(C(F)(F)F)cc65)c4F)n3)C2)C1` [Example 279, N-(3~(5-(2-((2,2-dioxido-2-thiaspiro-[3.3]heptan-6-yl)amino)pyrimidin-4-yl)-2-(3-(trifluoromethyl)bicyclo[1.1.1]-pentan-1-yl)thiazol-4-yl)-2-fluoro-phenyl)-6-(trifluoromethyl) indoline-1-sulfonamide], 409 nM; to `CC(C)(C)c1nc(-c2cccc(NS(=O)(=O)N3CCOc4ccccc43)c2F)c(-c2ccnc(NC3CCN(S(=O)(=O)N4CCNCC4)CC3)n2)s1` [Example 136, N-(3-(2-(tert-butyl)-5-(2-((1-(piperazin-1-ylsulfonyl)piperidin-4-yl)amino)-pyrimidin-4-yl)thiazol-4-yl)-2-fluorophenyl)-2,3-dihydro-4H-benzo[b][1,4] oxazine-4-sulfonamide], 1490 nM.
On to `CN1CCN(S(=O)(=O)Nc2cccc(-c3nc(C(C)(C)C)sc3-c3ccnc(NC4CCN(S(C)(=O)=O)CC4)n3)c2F)CC1=O` [Example 89, N-(3-(2-(tert-butyl)-5-(2-((1-(methylsulfonyl)-piperidin-4-yl)amino)-pyrimidin-4-yl)thiazol-4-yl)-2-fluoro-phenyl)-4-methyl-3-oxopiperazine-1-sulfonamide], for which the IC50 is 4810 nM.
The same measure for `CN1CCN(S(=O)(=O)Nc2cccc(-c3nc(C(C)(C)C)sc3-c3ccnc(NC4CCN(S(C)(=O)=O)CC4)n3)c2F)Cc2ccccc21` [Example 137, N-(3-(2-(tert-butyl)-5-(2-((1-(methylsulfonyl)-piperidin-4-yl)amino)-pyrimidin-4-yl)thiazol-4-yl)-2-fluoro-phenyl)-1-methyl-1,2,3,5-tetrahydro-4H-benzo[e][1,4] diazepine-4-sulfonamide]: 286 nM; for `CC(C)(C)c1nc(-c2cccc(NS(=O)(=O)N3CCc4ccccc43)c2F)c(-c2ccnc(NC3CC4(C3)CS(=O)(=O)C4)n2)s1` [Example 192, N-(3-(2-(tert-butyl)-5-(2-((2,2-dioxido-2-thiaspiro[3.3]heptan-6-yl)amino)-pyrimidin-4-yl)thiazol-4-yl)-2-fluoro-phenyl)indoline-1-sulfonamide]: 88.2 nM; for `CN(C)Cc1cccc2c1CN(S(=O)(=O)Nc1cccc(-c3nc(C(C)(C)C)sc3-c3ccnc(NC4CC5(C4)CS(=O)(=O)C5)n3)c1F)C2` [Example 197, N-(3-(2-(tert-butyl)-5-(2-((2,2-dioxido-2-thiaspiro[3.3]heptan-6-yl)amino)-pyrimidin-4-yl)thiazol-4-yl)-2-fluoro-phenyl)-4-((dimethylamino)methyl)-isoindoline-2-sulfonamide]: 1080 nM.
To `CC(C)(C)c1nc(-c2cccc(NS(=O)(=O)N3CCc4ccc(C(N)=O)cc43)c2F)c(-c2ccnc(NC3CCN(S(C)(=O)=O)CC3)n2)s1` [Example 168, 1-(N-(3-(2-(tert-butyl)-5-(2-((1-(methyl-sulfonyl)piperidin-4-yl)amino)pyrimidin-4-yl)thiazol-4-yl)-2-fluorophenyl)-sulfamoyl)-indoline-6-carboxamide] belongs 1590 nM; to `CC1CCN(S(=O)(=O)Nc2cccc(-c3nc(C(C)(C)C)sc3-c3ccnc(NC4CCN(S(C)(=O)=O)CC4)n3)c2F)CC1` [Example 63, N-(3-(2-(tert-butyl)-5-(2-((1-(methylsulfonyl)-piperidin-4-yl)amino)-pyrimidin-4-yl)thiazol-4-yl)-2-fluoro-phenyl)-4-methylpiperidine-1-sulfonamide], 679 nM.
The same measure for `CS(=O)(=O)[C@H]1CC[C@H](Nc2nccc(-c3sc(C45CC(C(F)(F)F)(C4)C5)nc3-c3cccc(NS(=O)(=O)N4CCc5ccc(C(F)(F)F)cc54)c3F)n2)CC1` [Example 55, N-(2-fluoro-3-(5-(2-(((1r, 4r)-4-(methylsulfonyl)cyclohexyl)amino)pyrimidin-4-yl)-2-(3-(trifluoromethyl)bicyclo-[1.1.1]-pentan-1-yl)thiazol-4-yl)phenyl)-6-(trifluoromethyl) indoline-1-sulfonamide]: 525 nM; for `CN(C)C(=O)c1ccc2c(c1)N(S(=O)(=O)Nc1cccc(-c3nc(C(C)(C)C)sc3-c3ccnc(NC4CC5(C4)CS(=O)(=O)C5)n3)c1F)CC2` [Example 198, 1-(N-(3-(2-(tert-butyl)-5-(2-((2,2-dioxido-2-thiaspiro[3.3]heptan-6-yl)amino)pyrimidin-4-yl)thiazol-4-yl)-2-fluorophenyl)sulfamoyl)-N,N-dimethylindoline-6-carboxamide]: 667 nM; for `CN1CC2CCC(C1)N2c1nc(-c2cccc(NS(=O)(=O)N3Cc4cccc(OC(F)F)c4C3)c2F)c(-c2ccnc(NC3CC4(C3)CS(=O)(=O)C4)n2)s1` [Example 30, 4-(difluoromethoxy)-N-(3-(5-(2-((2,2-dioxido-2-thiaspiro [3.3]heptan-6-yl)amino)pyrimidin-4-yl)-2-(3-methyl-3,8-diazabicyclo [3.2.1]-octan-8-yl)thiazol-4-yl)-2-fluorophenyl)-isoindoline-2-sulfonamide]: 28.5 nM.
`O=S1(=O)CC2(CC(Nc3nccc(-c4sc(C56CC(C5)C6)nc4-c4cccc(NS(=O)(=O)N5Cc6cccc(C(F)F)c6C5)c4F)n3)C2)C1` [Example 28, N-(3-(2-(bicyclo [1.1.1]pentan-1-yl)-5-(2-((2,2-dioxido-2-thiaspiro[3.3]heptan-6-yl)amino)-pyrimidin-4-yl)thiazol-4-yl)-2-fluorophenyl)-4-(difluoromethyl)-isoindoline-2-sulfonamide]: the IC50 turned out to be 71.9 nM.
To `CN(C1CCC1)S(=O)(=O)Nc1cccc(-c2nc(C(C)(C)C)sc2-c2ccnc(NC3CCN(S(=O)(=O)N4CCNCC4)CC3)n2)c1F` [Example 107, N-(3-(2-(tert-butyl)-5-(2-((1-(piperazin-1-yl-sulfonyl)piperidin-4-yl)amino)-pyrimidin-4-yl)thiazol-4-yl)-2-fluoro-phenyl)(N-methyl-N-cyclo-butylamine)-sulfonamide] belongs 919 nM; to `CN1CCN(S(=O)(=O)N2CCC(Nc3nccc(-c4sc(C(C)(C)C)nc4-c4cccc(NS(=O)(=O)N(C)C5CCC5)c4F)n3)CC2)CC1` [Example 111, N-(3-(2-(tert-butyl)-5-(2-((1-((4-methylpiperazin-1-yl)sulfonyl)piperidin-4-yl)amino)pyrimidin-4-yl)thiazol-4-yl)-2-fluorophenyl)-(N-methyl-N-cyclobutylamine)-sulfonamide], 908 nM.
